Laboratory results taken from ChEMBL document CHEMBL6182944, “Substrate Specificity of the Organic Cation Transporters MATE1 and MATE2K and Functional Overlap with OCT1 and OCT2” (J Med Chem, 2025).

Tests used:
MATE2-K = target: T1, MATE2-K (Homo sapiens, UniProt Q86VL8); assay: in vitro
T1 sequence (Q86VL8 whole entry): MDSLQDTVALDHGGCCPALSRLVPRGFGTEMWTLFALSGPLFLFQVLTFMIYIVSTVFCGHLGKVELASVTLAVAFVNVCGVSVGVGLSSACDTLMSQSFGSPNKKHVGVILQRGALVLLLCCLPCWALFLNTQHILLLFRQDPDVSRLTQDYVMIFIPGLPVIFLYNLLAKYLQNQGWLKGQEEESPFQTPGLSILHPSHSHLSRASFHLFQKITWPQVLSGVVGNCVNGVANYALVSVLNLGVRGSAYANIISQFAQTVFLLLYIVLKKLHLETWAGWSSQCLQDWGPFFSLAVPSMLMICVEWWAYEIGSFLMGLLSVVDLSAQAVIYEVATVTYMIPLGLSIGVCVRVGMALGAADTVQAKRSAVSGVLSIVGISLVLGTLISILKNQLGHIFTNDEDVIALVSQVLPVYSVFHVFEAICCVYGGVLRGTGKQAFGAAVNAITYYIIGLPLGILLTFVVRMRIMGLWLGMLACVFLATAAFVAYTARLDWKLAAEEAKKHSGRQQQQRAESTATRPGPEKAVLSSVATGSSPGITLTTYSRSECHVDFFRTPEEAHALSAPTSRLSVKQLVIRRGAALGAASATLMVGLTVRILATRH

MATE1 = target: T2, MATE1 (Homo sapiens, UniProt Q96FL8); assay: in vitro
T2 sequence (Q96FL8 whole entry): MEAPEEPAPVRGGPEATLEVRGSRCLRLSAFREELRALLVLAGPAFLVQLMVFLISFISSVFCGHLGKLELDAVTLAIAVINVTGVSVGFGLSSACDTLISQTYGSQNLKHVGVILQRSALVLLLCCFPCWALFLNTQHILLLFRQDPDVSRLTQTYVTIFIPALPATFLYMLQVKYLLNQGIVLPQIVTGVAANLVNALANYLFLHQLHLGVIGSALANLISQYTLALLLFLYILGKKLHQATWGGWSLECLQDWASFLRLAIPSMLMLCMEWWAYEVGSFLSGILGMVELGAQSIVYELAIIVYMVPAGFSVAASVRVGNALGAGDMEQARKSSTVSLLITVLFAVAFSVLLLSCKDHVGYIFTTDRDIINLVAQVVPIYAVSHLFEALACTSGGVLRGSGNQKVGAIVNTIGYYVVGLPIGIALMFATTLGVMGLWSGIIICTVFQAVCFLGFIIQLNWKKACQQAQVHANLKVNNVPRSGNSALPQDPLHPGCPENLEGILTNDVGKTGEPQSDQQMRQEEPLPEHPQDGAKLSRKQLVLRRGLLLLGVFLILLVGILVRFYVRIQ

[1] = HEK293 cells expressing MATE2-K

SMILES	uptake ratio at 1 min, 2.5 µM (MATE2-K; [1])	uptake ratio at 1 min, 2.5 µM (MATE1; HEK293 cells expressing MATE1)	uptake ratio at 1 min, 2.5 µM (MATE2-K; hek293)	uptake ratio at 1 min, 2.5 µM (MATE1; hek293)
CC(C)NCC(O)c1cc(O)cc(O)c1 (centres undefined) [METAPROTERENOL]	> 2	> 2	–	–
CC(C)NCC(O)c1ccc(NS(C)(=O)=O)cc1 (centres undefined) [SOTALOL]	< 2	> 2	–	–
CCCCNC(=N)NC(=N)N [BUFORMIN]	–	–	> 2	> 2
COc1cc2c(cc1OC)-c1cc3ccc4c(c3c[n+]1CC2)OCO4	> 2	> 2	–	–
COc1cc2c(cc1OC)-c1c(C)c3ccc(OC)c(OC)c3c[n+]1CC2 [DEHYDROCORYDALINE]	> 2	> 2	–	–
C[N+]1(C)CCCC(OC(=O)C(O)(c2ccccc2)c2ccccc2)C1 (centres undefined) [MEPENZOLATE BROMIDE]	> 2	> 2	–	–
COc1ccc2[nH]c3c(c2c1)CCNC3	< 2	< 2	–	–
O=c1cccc2n1C[C@@H]1CNC[C@H]2C1 [CYTISINICLINE]	–	–	< 2	> 2
C[C@H](NCCc1ccc(O)cc1)[C@H](O)c1ccc(O)cc1	–	–	> 2	> 2
CC(C)(CO)[C@@H](O)C(=O)NCCC(=O)O [PANTOTHENIC ACID]	< 2	< 2	–	–
CCC(Cc1ccc2c(c1)OCO2)NC (centres undefined)	< 2	< 2	–	–
Clc1ccc(COC(Cn2ccnc2)c2ccc(Cl)cc2Cl)c(Cl)c1 (centres undefined) [MICONAZOLE]	< 2	< 2	–	–
O=C(O[C@H]1C[N+]2(CCCOc3ccccc3)CCC1CC2)C(O)(c1cccs1)c1cccs1	< 2	> 2	–	–
CNS(=O)(=O)CCc1ccc2[nH]cc(C3CCN(C)CC3)c2c1	> 2	> 2	–	–
CNC(=C[N+](=O)[O-])NCCSCc1ccc(CN(C)C)o1 [RANITIDINE]	–	–	> 2	> 2
NC(N)=NCCCCN=C(N)N [ARCAINE]	> 2	> 2	–	–
O=c1ncccn1[C@@H]1O[C@H](CO)[C@@H](O)[C@H]1O [ZEBULARINE]	< 2	< 2	–	–
N=C(N)NCc1cccc(I)c1 [IOBENGUANE]	> 2	> 2	–	–
C[N+]1(CCC(C(N)=O)(c2ccccc2)c2ccccc2)CCCCC1	< 2	> 2	–	–
NCCc1c[nH]c2ccc(O)cc12 [SEROTONIN]	> 2	> 2	–	–
NCCCCN [PUTRESCINE]	–	–	< 2	< 2
COc1ccc(CCN)cc1	< 2	< 2	–	–
CNCC(O)c1ccc(O)cc1 (centres undefined)	< 2	> 2	–	–
CNCCc1c[nH]c2ccc(O)cc12	> 2	> 2	–	–
Nc1ccncc1N [AMIFAMPRIDINE]	> 2	> 2	–	–
CCN(CC)C(=O)Nc1ccc(OCC(O)CNC(C)(C)C)c(C(C)=O)c1 (centres undefined) [CELIPROLOL]	> 2	> 2	–	–
NCC(O)c1ccc(O)cc1 (centres undefined) [OCTOPAMINE]	< 2	> 2	–	–
